Calls of active or inactive are those of the source.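 Rule for the calls: active = curve reaches 40% rise within the top valid dose, in every run; inconclusive = runs give conflicting calls; inactive = opposite-direction activity, or every run inactive.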

The first experiment is described as follows: ATP change in C2C12 myotubes without statin, dose response, counter-screen for statin myotoxicity suppressor project, cell-based, no simvastatin, luminescence, dry powder (AID 743334). The settings on record: C2C12 myotubes ATP, CellTiter-Glo luminescence, 48 h; at 18 µM (top of the series). A general note: A counterscreen serves to expose hits that act by an unwanted route or on another target.
For the compound `C[C@H](CO)N1C[C@H](C)[C@H](CN(C)Cc2ccc3c(c2)OCO3)Oc2ccc(NC(=O)CCCCCC(=O)Nc3ccccc3N)cc2CC1=O`, the ATP level change, positive = increase was 12% (inactive).

The same experiment, now with this note: C2C12 myotubes ATP, CellTiter-Glo luminescence, 48 h; at 19.5 µM (top of the series).
`COc1ccc(S(=O)(=O)N(C)C[C@H]2Oc3c(NC(=O)Nc4ccccc4)cccc3C(=O)N([C@H](C)CO)C[C@H]2C)cc1`: the ATP level change, positive = increase was 7.7% (inactive).
Still for that read-out and setting: the figure for `C[C@H]1CN([C@@H](C)CO)C(=O)c2cc(N(C)C)ccc2O[C@@H]1CN(C)Cc1ccc(C(=O)Nc2ccccc2N)cc1` is 3.03% (inactive); for `Cc1ccc(S(=O)(=O)Nc2ccc3c(c2)CC(=O)N([C@@H](C)CO)C[C@@H](C)[C@H](CN(C)Cc2ccc(-c4ccccc4)cc2)O3)cc1` it is -0.559% (inactive); for `Cc1ccc(S(=O)(=O)N(C)C[C@@H]2Oc3ccc(NS(=O)(=O)c4ccc(Cl)cc4)cc3C(=O)N([C@H](C)CO)C[C@@H]2C)cc1` it is -0.772% (inactive).
For `C[C@H]1CN([C@@H](C)CO)S(=O)(=O)c2ccc(C#Cc3ccc(F)cc3)cc2O[C@@H]1CN(C)S(=O)(=O)c1cn(C)cn1`, the ATP level change, positive = increase was 6.04% (inactive).
In the case of `C[C@@H]1CN([C@@H](C)CO)C(=O)c2cc(NS(=O)(=O)c3ccc(Cl)cc3)ccc2O[C@H]1CN(C)C(=O)Nc1cccc2ccccc12`, the ATP level change, positive = increase is 6.56% (inactive).
The same measure, in the same setting: as for `C[C@@H]1CN([C@H](C)CO)C(=O)Cc2cc(NC(=O)C3CCCCC3)ccc2O[C@H]1CN(C)Cc1ccc(Cl)c(Cl)c1`, the figure is 15.1% (inactive).
Consider `Cc1noc(C)c1S(=O)(=O)Nc1ccc2c(c1)CC(=O)N([C@H](C)CO)C[C@H](C)[C@@H](CN(C)Cc1ccc(C(F)(F)F)cc1)O2`, for which the ATP level change, positive = increase is 10.6% (inactive).
The same measure, in the same setting: as for `C[C@@H]1CN([C@H](C)CO)C(=O)Cc2cc(NS(=O)(=O)c3cn(C)cn3)ccc2O[C@@H]1CN(C)Cc1ccc(Cl)c(Cl)c1`, the figure is 9.79% (inactive).
In the case of `C[C@@H]1CN([C@@H](C)CO)C(=O)c2cccc(NC(=O)Nc3ccc4c(c3)OCO4)c2O[C@H]1CN(C)Cc1ccc(C(=O)Nc2ccccc2N)cc1`, the ATP level change, positive = increase was 16.4% (inactive).

Still in this experiment, the particulars now being: C2C12 myotubes ATP, CellTiter-Glo luminescence, 48 h; at 21 µM (top of the series).
As to `Cc1noc(C)c1S(=O)(=O)Nc1ccc2c(c1)CC(=O)N([C@H](C)CO)C[C@@H](C)[C@@H](CN(C)Cc1ccc(-c3ccccc3)cc1)O2`, the ATP level change, positive = increase is 10.4% (inactive).
`C[C@H]1CN([C@@H](C)CO)C(=O)Cc2cc(NC(=O)CCCCCC(=O)Nc3ccccc3N)ccc2O[C@H]1CN(C)Cc1ccc(C(F)(F)F)cc1`: the ATP level change, positive = increase was 5.44% (inactive).

Staying with this experiment, now noted: C2C12 myotubes ATP, CellTiter-Glo luminescence, 48 h; hits give high values.
For the compound `N#C[C@@H]1[C@H](c2ccc(-c3cccc(F)c3)cc2)[C@H](CO)N1C(=O)NC1CCCC1`, the max activity was -18.6% (inactive).
For the compound `CCCNC(=O)N1[C@H](CO)[C@H](c2ccccc2)[C@@H]1C#N`, the max activity is -8.33% (inactive).
On the same count and under the same terms, as for `COc1ccc(C#Cc2cnc3c(c2)C(=O)N([C@H](C)CO)C[C@H](C)[C@@H](CN(C)C(=O)Nc2cccc(OC)c2)O3)cc1`, the figure is 8% (inactive); as for `C[C@H]1CN([C@@H](C)CO)C(=O)Cc2cc(NC(=O)Nc3cccc4ccccc34)ccc2O[C@H]1CN(C)Cc1ccc(C(=O)Nc2ccccc2N)cc1`, 10.8% (inactive); as for `N#C[C@H]1[C@@H](c2ccc(-c3cccc(F)c3)cc2)[C@@H](CO)N1C(=O)NC1CCCC1`, -0.663% (inactive).
For `O=C(C[C@H]1CC[C@@H]2[C@H](COC[C@H](O)CN2CCC(F)(F)F)O1)NCc1ccc(Oc2ccccc2)cc1`, the max activity is 9.67% (inactive).
On the same count and under the same terms, as for `C/C=C/c1ccc([C@H]2[C@@H](CO)N(C(=O)NC3CCCC3)[C@H]2C#N)cc1`, the figure is -3.18% (inactive); as for `N#C[C@@H]1[C@H](c2ccc(-c3cccc(F)c3)cc2)[C@@H](CO)N1C(=O)NC1CCCC1`, -0.345% (inactive).
On the same count and under the same terms, as for `C[C@@H]1CN([C@@H](C)CO)C(=O)Cc2cc(NC(=O)CCCCCC(=O)Nc3ccccc3N)ccc2O[C@@H]1CN(C)Cc1ccc(Oc2ccccc2)cc1`, the figure is -25.1% (inactive).
Regarding `C[C@H](CO)N1C[C@H](C)[C@H](CN(C)Cc2ccc(C(=O)Nc3ccccc3N)cc2)Oc2ccc(NC(=O)Nc3ccc(F)cc3)cc2CC1=O`, the max activity is -33.9% (inactive).
On to `C[C@H](CO)N1C[C@H](C)[C@H](CN(C)Cc2ccc(C(=O)Nc3ccccc3N)cc2)Oc2ccc(NC(=O)Nc3cccc4ccccc34)cc2C1=O`, for which the max activity was -0.211% (inactive).
Regarding `C[C@@H]1CN([C@@H](C)CO)C(=O)c2cc(NC(=O)Cc3cn(C)c4ccccc34)ccc2O[C@H]1CN(C)Cc1ccc(C(=O)Nc2ccccc2N)cc1`, the max activity was -0.192% (inactive).
On the same count and under the same terms, as for `CC(C)=CCC/C(C)=C/CC/C(C)=C/CC/C(C)=C/CO`, the figure is 1.13% (inactive); as for `N#C[C@@H]1[C@@H](c2ccc(C#Cc3cccnc3)cc2)[C@@H](CO)N1C(=O)C1CCCC1`, -10.7% (inactive); as for `N#C[C@@H]1[C@@H](c2ccccc2)[C@H](CO)N1S(=O)(=O)c1ccc(-c2ccccc2)cc1`, -5.62% (inactive).
On the same count and under the same terms, the figure for `C[C@H](CO)N1C[C@H](C)[C@H](CN(C)Cc2ccc(Oc3ccccc3)cc2)Oc2ccc(NC(=O)CCCCCC(=O)Nc3ccccc3N)cc2CC1=O` is -48.9% (inactive).
Turning to `CCS(=O)(=O)N1[C@H](C#N)[C@@H](c2ccc(-c3cccc(F)c3)cc2)[C@@H]1CO`, the max activity was -8.9% (inactive).
For `N#C[C@@H]1[C@@H](c2ccc(-c3cccc(F)c3)cc2)[C@@H](CO)N1C(=O)NC1CCCC1`, the max activity was 2.16% (inactive).
Still for that read-out and setting: as for `C[C@@H]1CN([C@H](C)CO)C(=O)c2cc(NC(=O)Nc3cccc4ccccc34)ccc2O[C@@H]1CN(C)Cc1ccc(C(=O)Nc2ccccc2N)cc1`, the figure is 13.3% (inactive).
On the same count and under the same terms, as for `COCC(=O)N1[C@H](C#N)[C@@H](c2ccc(-c3cccc(F)c3)cc2)[C@@H]1CO`, the figure is 6.18% (inactive); as for `C[C@H]1CN([C@@H](C)CO)C(=O)c2cc(NC(=O)Cc3cn(C)c4ccccc34)ccc2O[C@H]1CN(C)Cc1ccc(C(=O)Nc2ccccc2N)cc1`, 5.76% (inactive); as for `C[C@@H]1CN([C@H](C)CO)C(=O)c2cccc(NC(=O)c3nc4ccccc4s3)c2O[C@@H]1CN(C)Cc1ccc(C(=O)Nc2ccccc2N)cc1`, -20.8% (inactive).
On the same count and under the same terms, the figure for `C[C@H]1CN([C@@H](C)CO)C(=O)Cc2cc(NC(=O)CCCCCC(=O)Nc3ccccc3N)ccc2O[C@@H]1CN(C)Cc1ccc(Oc2ccccc2)cc1` is -15.5% (inactive); for `N#C[C@@H]1[C@@H](c2ccccc2-c2ccc(F)cc2)[C@H](CO)N1C(=O)NC1CCCC1` it is -6.02% (inactive); for `C[C@H](CO)N1C[C@H](C)[C@@H](CN(C)Cc2ccc(C(=O)Nc3ccccc3N)cc2)Oc2ccc(NC(=O)Cc3cn(C)c4ccccc34)cc2C1=O` it is -9.11% (inactive).
Take `N#C[C@H]1N[C@@H](CO)[C@@H]1c1ccc(-c2cccc(F)c2)cc1`: the max activity is 7.67% (inactive).
Take `N#C[C@H]1[C@H](c2ccc(C#Cc3ccc(F)cc3)cc2)[C@H](CO)N1c1nc(-c2ccccc2)cs1`: the max activity was 9.97% (inactive).
On to `N#C[C@@H]1[C@@H](c2ccc(C#CC3CCCC3)cc2)[C@H](CO)N1S(=O)(=O)c1ccccc1`, for which the max activity was -8.85% (inactive).
On the same count and under the same terms, the figure for `O=C(C[C@H]1CC[C@@H]2[C@H](COC[C@@H](O)CN2Cc2ccc(Oc3ccccc3)cc2)O1)N1CCCCC1` is 14% (inactive); for `C[C@H]1CN([C@@H](C)CO)C(=O)Cc2cc(NS(=O)(=O)c3ccc(Cl)cc3)ccc2O[C@@H]1CN(C)CC1CCCCC1` it is 4.91% (inactive); for `C[C@H](CO)N1C[C@H](C)[C@H](CN(C)Cc2ccc(C(=O)Nc3ccccc3N)cc2)Oc2ccc(NC(=O)Nc3cccc4ccccc34)cc2CC1=O` it is -21.1% (inactive).
Still for that read-out and setting: as for `CCCC#Cc1ccc([C@H]2[C@@H](C#N)N(S(=O)(=O)c3cccc(F)c3)[C@H]2CO)cc1`, the figure is 3.4% (inactive); as for `N#C[C@H]1[C@H](c2ccc(C#CCC3CCCC3)cc2)[C@@H](CO)N1C(=O)CN1CCOCC1`, -19% (inactive); as for `C[C@@H]1CN([C@H](C)CO)C(=O)c2cc(NC(=O)Cc3cn(C)c4ccccc34)ccc2O[C@@H]1CN(C)Cc1ccc(C(=O)Nc2ccccc2N)cc1`, -0.539% (inactive).
For `C[C@@H]1CN([C@H](C)CO)C(=O)Cc2cc(NC(=O)CCCCCC(=O)Nc3ccccc3N)ccc2O[C@@H]1CN(C)Cc1ccc(Oc2ccccc2)cc1`, the max activity is -23.3% (inactive).
Same read-out and setting: as for `CCCNC(=O)N1[C@H](C#N)[C@@H](c2ccc(C3=CCCCC3)cc2)[C@@H]1CO`, the figure is -7.65% (inactive); as for `C[C@@H]1CN([C@H](C)CO)C(=O)c2cccc(NC(=O)Nc3ccc4c(c3)OCO4)c2O[C@H]1CN(C)Cc1ccc(C(=O)Nc2ccccc2N)cc1`, -9.22% (inactive).
For the compound `C[C@H](CO)N1C[C@H](C)[C@H](CN(C)Cc2ccc(C(=O)Nc3ccccc3N)cc2)Oc2ccc(N(C)C)cc2C1=O`, the max activity is -24.5% (inactive).
Same read-out and setting: the figure for `N#C[C@H]1[C@@H](c2ccc(-c3cccc(F)c3)cc2)[C@H](CO)N1C(=O)NC1CCCC1` is 9.12% (inactive); for `CN(C)C(=O)c1cccc(-c2ccc([C@@H]3[C@@H](C#N)N(C(=O)C4CCCC4)[C@@H]3CO)cc2)c1` it is -5.88% (inactive); for `N#C[C@@H]1[C@@H](c2ccc(-c3cccc(F)c3)cc2)[C@H](CO)N1C(=O)c1cccnc1` it is 6.17% (inactive).
On to `C[C@H]1CN([C@@H](C)CO)C(=O)Cc2cc(NC(=O)CCCCCC(=O)Nc3ccccc3N)ccc2O[C@H]1CN(C)CC1CCCCC1`, for which the max activity was 11.1% (inactive).
Same read-out and setting: as for `CN1C(=O)c2cc(NC(=O)c3ccc(F)c(F)c3)ccc2OC[C@H]2O[C@@H](CC(=O)Nc3ccc4c(c3)COC4)CC[C@@H]21`, the figure is 12.6% (inactive); as for `C[C@H]1CN([C@@H](C)CO)S(=O)(=O)c2ccc(C#CC3CC3)cc2O[C@H]1CN(C)C(=O)Nc1cc(F)ccc1F`, -12.1% (inactive).
